Results reported in patent US20260258085A1, “NOVEL DECAPEPTIDE AND USE THEREOF IN ANTIBACTERIAL” (METHYCURE BIOTECH CORP., priority 2023, published 2026).
Positions of bridges follow the written chain, without caps; N, C: chain ends. Non-standard residues stand in square brackets, D forms with d. Residues, ends and D or L forms follow the SMILES beside them. *: point of attachment. X1 = CC[C@H](C)CCCCC(=O)*; dDab = NCC[C@@H](N)C(=O)O; Dab = NCC[C@H](N)C(=O)O

Assays:
[1] = system: polymyxin-resistant Acinetobacter baumannii; assay: Efficacy in neutropenic mice with thigh infection; type: in vivo; settings: neutropenic CD1 mice, 20 mg/kg subcutaneous at 2, 8, 14, 24 hours post-infection, endpoint 24 hours
From the text: All mice used in this part passed the ethical review of animal research at Nanjing University. To avoid the influence of the mouse's innate immune system on the intrinsic activity of the antimicrobial peptide, we constructed a neutropenic mouse model. This experiment used 6-week-old CD1 female mice (20-25 g). Mice were randomly housed in individually ventilated cages and maintained according to the standards of the Association for Assessment and Accreditation of Laboratory Animal Care International. The room was set to a 12-hour light cycle, temperature of 21° C., and humidity of 30%. […]
At 2, 8, 14, and 24 hours post-infection, mice were subcutaneously injected with 100 μL of vehicle (0.9% saline), Polymyxin E (Colistin) (20 mg/kg), or the antimicrobial peptide (20 mg/kg). […] All mice were closely monitored post-infection for signs of illness. Any abnormal clinical symptoms were recorded. […] Thigh muscles were processed aseptically, weighed, homogenized, and plated for CFU counts on MH agar containing 50 μg/mL gentamicin to quantify the bacterial burden. Efficacy was determined by the reduction in bacterial burden in the thighs compared to the […] control group. All graphical data were statistically analyzed using GraphPad Prism software (Prism v.9). Differences in burden between test and control groups were assessed using one-way analysis. […]

E. coli = assay: Minimum inhibitory concentration test against common Gram-negative bacteria; type: cell-based, Escherichia coli; settings: clinical isolate, 37° C., 16 hours, visual reading
Experimental: (§1) The pathogenic bacteria used for testing were all sourced from the intensive care unit of Gulou Hospital, isolated and cultured from clinical samples of patients with severe pneumonia. The strain species were identified by the Microbiology Laboratory of Gulou Hospital. The Gram-negative bacteria here include Escherichia coli, Pseudomonas aeruginosa, Acinetobacter baumannii, Klebsiella pneumoniae, etc.
(§2) A single colony of the test bacteria was inoculated into 5 ml of medium and cultured overnight to saturation. 10 μL of bacterial culture was aspirated and added to 990 μL of fresh medium, mixed well, to obtain a 100-fold diluted bacterial suspension. Then, 20 μL of the 100-fold diluted bacterial suspension was aspirated and added to 980 μL of fresh medium, mixed well. The bacteria obtained at this point were diluted 5000-fold.
(§3) The antimicrobial peptide was dissolved in Dimethyl sulfoxide (DMSO) to obtain a stock solution with a concentration of 12.8 mg/mL. Using DMSO, a two-fold serial dilution was performed for 10 consecutive times.
Add the 11 gradients of antimicrobial peptide diluted in step 1.1.2 to a 96-well plate, respectively, with the last well containing the same volume of DMSO. Then, add 48 μL of fresh medium to each well. Subsequently, add the 5000-fold diluted bacteria from step 1.1.1 to each well. Mix well. Incubate at 37° C. for 16 hours. […]

[2] = system: A. baumannii containing the MCR-1 plasmid; type: cell-based, Acinetobacter baumannii; settings: for Minimum Inhibitory Concentration, A. baumannii 1: strain 1, MCR-1 plasmid; for Minimum Inhibitory Concentration, A. baumannii 2: strain 2, MCR-1 plasmid
Experimental: (§4) The polymyxin-resistant pathogenic bacteria used for testing were all sourced from the hospital intensive care unit, isolated and cultured from clinical samples of patients with severe pneumonia. The strain species were identified by the hospital microbiology laboratory, and the presence of the mcr-1 gene in the strains was confirmed by high-throughput sequencing.
(§5) The culture procedure fully referenced Example 1.
(§6) Each bacterial species in the table was tested using 2 strains, denoted as “1” and “2” respectively.

Pseudomonas aeruginosa = assay: Minimum inhibitory concentration test against common Gram-negative bacteria; type: cell-based; settings: clinical isolate, 37° C., 16 hours, visual reading
Experimental: as §1, §2, §3
(§7) Add the 11 gradients of antimicrobial peptide diluted in step 1.1.2 to a 96-well plate, respectively, with the last well containing the same volume of DMSO. Then, add 48 μL of fresh medium to each well. Subsequently, add the 5000-fold diluted bacteria from step 1.1.1 to each well. Mix well. Incubate at 37° C. for 16 hours. Visually determine the concentration at which bacterial growth begins to be inhibited; this is the minimum inhibitory concentration (MIC).

Acinetobacter baumannii = assay: as above; type: cell-based; settings: clinical isolate, 37° C., 16 hours, visual reading
Experimental: as §1, §2, §3, §7

Klebsiella pneumoniae = assay: as above; type: cell-based; settings: clinical isolate, 37° C., 16 hours, visual reading
Experimental: as §1, §2, §3, §7

[3] = system: E. coli containing the MCR-1 plasmid; type: cell-based, Escherichia coli; settings: for Minimum Inhibitory Concentration, E. coli 1: strain 1, MCR-1 plasmid; for Minimum Inhibitory Concentration, E. coli 2: strain 2, MCR-1 plasmid
Experimental: as §4, §5, §6

[4] = system: P. aeruginosa containing the MCR-1 plasmid; type: cell-based, Pseudomonas aeruginosa; settings: for Minimum Inhibitory Concentration, P. aeruginosa 1: strain 1, MCR-1 plasmid; for Minimum Inhibitory Concentration, P. aeruginosa 2: strain 2, MCR-1 plasmid
Experimental: as §4, §5, §6

[5] = system: K. pneumoniae containing the MCR-1 plasmid; type: cell-based, Klebsiella pneumoniae; settings: for Minimum Inhibitory Concentration, K. pneumoniae 1: strain 1, MCR-1 plasmid; for Minimum Inhibitory Concentration, K. pneumoniae 2: strain 2, MCR-1 plasmid
Experimental: as §4, §5, §6

Row | Structure (SMILES) | bacterial burden in thighs (CFU) [1] | Minimum Inhibitory Concentration (MIC) (E. coli) [µg/mL] | Minimum Inhibitory Concentration, A. baumannii 1 [2] [µg/mL] | Minimum Inhibitory Concentration, A. baumannii 2 [2] [µg/mL] | Minimum Inhibitory Concentration (MIC) (Pseudomonas aeruginosa) [µg/mL] | Minimum Inhibitory Concentration (MIC) (Acinetobacter baumannii) [µg/mL] | Minimum Inhibitory Concentration (MIC) (Klebsiella pneumoniae) [µg/mL] | Minimum Inhibitory Concentration, E. coli 1 [3] [µg/mL] | Minimum Inhibitory Concentration, E. coli 2 [3] [µg/mL] | Minimum Inhibitory Concentration, P. aeruginosa 1 [4] [µg/mL] | Minimum Inhibitory Concentration, P. aeruginosa 2 [4] [µg/mL] | Minimum Inhibitory Concentration, K. pneumoniae 1 [5] [µg/mL] | Minimum Inhibitory Concentration, K. pneumoniae 2 [5] [µg/mL]
1 | CC[C@H](C)CCCCC(=O)N[C@@H](CCN)C(=O)N[C@H](C(=O)N[C@H](CCN)C(=O)N[C@H]1CCNC(=O)[C@H](CC(C)C)NC(=O)[C@H](CCN)NC(=O)[C@H](CCN)NC(=O)[C@H]([C@@H](C)CC)NC(=O)[C@@H](CC(C)C)NC(=O)[C@H](CCN)NC1=O)[C@@H](C)O [Antimicrobial Peptide, {6-ME-Octanoic acid}-{Dab}-{Thr}-{D-Dab}-{Dab}-{Dab}-{D-Leu}-{Ile}-{Dab}-{Dab}-{Leu}] (X1-[Dab]T[dDab][Dab][Dab][dL]I[Dab][Dab]L; lactam 4-C) | significant reduction in colony-forming units (CFU) | 4 | 4 | 2 | 4 | 16 | 8 | 2 | 2 | 2 | 1 | 1 | 2
2 | CC[C@H](C)CCCCC(=O)N[C@@H](CCN)C(=O)N[C@H](C(=O)N[C@@H](CCN)C(=O)N[C@H]1CCNC(=O)[C@H]([C@@H](C)O)NC(=O)[C@H](CCN)NC(=O)[C@H](CCN)NC(=O)[C@H](CC(C)C)NC(=O)[C@@H](CC(C)C)NC(=O)[C@H](CCN)NC1=O)[C@@H](C)O [Colistin, reference compound] (X1-[Dab]T[Dab][Dab][Dab][dL]L[Dab][Dab]T; lactam 4-C) | did not reduce the count of Acinetobacter baumannii | – | 128 | 128 | – | – | – | 128 | 256 | 64 | 128 | 64 | 128
